Assay results published in PubChem BioAssay AID330 (DTP/NCI, 2004).
Where “and” joins values, the source holds several entries; their conditions need not be identical. Equal entries are not always repeated. Toxic doses and inconclusive results are not listed. How the source made its calls: active means survival T/C of 150% or more; inactive means T/C below 125% in these data.

Tested on: P388 leukemia ip, CD2F1 mice, survival T/C
Experiment: NCI In Vivo Anticancer Drug Screen. Data for tumor model P388 Leukemia (intraperitoneal) in CD2F1 (CDF1) mice
Details: endpoint: median survival time, higher = longer survival
Method in brief: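 Mice carrying the transplanted tumor received test compound or vehicle. Survival was recorded in each group, and the value is the treated-group measurement divided by that of the vehicle-treated control group.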

[1] = dose: 50.0 mg/kg/injection, schedule: Q01DX009 (ip), vehicle: Klucel (hydroxypropylcellulose) (HPC)
[2] = dose: 50.0 mg/kg/injection, schedule: Q01DX009 (ip), vehicle: saline with Tween-80
[3] = dose: 100.0 mg/kg/injection, schedule: Q01DX009 (ip), vehicle: saline with Tween-80
[4] = dose: 200.0 mg/kg/injection, schedule: Q01DX009 (ip), vehicle: saline with Tween-80
[5] = dose: 25.0 mg/kg/injection, schedule: Q01DX009 (ip), vehicle: saline
[6] = dose: 50.0 mg/kg/injection, schedule: Q01DX009 (ip), vehicle: saline
[7] = dose: 100.0 mg/kg/injection, schedule: Q04DX003 (ip), vehicle: saline with Tween-80
[8] = dose: 200.0 mg/kg/injection, schedule: Q04DX003 (ip), vehicle: saline with Tween-80
[9] = dose: 400.0 mg/kg/injection, schedule: Q04DX003 (ip), vehicle: saline with Tween-80
[10] = dose: 100.0 mg/kg/injection, schedule: Q01DX009 (ip), vehicle: Klucel (hydroxypropylcellulose) (HPC)
[11] = dose: 200.0 mg/kg/injection, schedule: Q01DX009 (ip), vehicle: Klucel (hydroxypropylcellulose) (HPC)
[12] = dose: 50.0 mg/kg/injection, schedule: Q01DX005 (ip), vehicle: saline with Tween-80
[13] = dose: 100.0 mg/kg/injection, schedule: Q01DX005 (ip), vehicle: saline with Tween-80
[14] = dose: 100.0 mg/kg/injection, schedule: Q01DX009 (ip), vehicle: saline
[15] = dose: 200.0 mg/kg/injection, schedule: Q01DX009 (ip), vehicle: saline

Measured: T/C

c1ccc(N2CCN(c3ccccc3)C2=C2N(c3ccccc3)CCN2c2ccccc2)cc1
inactive: dose: 3.0 mg/kg/injection, schedule: Q01DX005 (ip), vehicle: saline 105 % of control | dose: 6.0 mg/kg/injection, schedule: Q01DX005 (ip), vehicle: saline 107 % of control | dose: 12.0 mg/kg/injection, schedule: Q01DX005 (ip), vehicle: saline 105 % of control | dose: 12.5 mg/kg/injection, schedule: Q01DX005 (ip), vehicle: saline 114 % of control | dose: 25.0 mg/kg/injection, schedule: Q01DX005 (ip), vehicle: saline 99 % of control and 118 % of control

CCOC(=O)c1cn[nH]c1N
inactive: dose: 25.0 mg/kg/injection, schedule: Q01DX009 (ip), vehicle: Klucel (hydroxypropylcellulose) (HPC) 108 % of control | [1] 93 % of control

Cc1c(C)c2c(c(C)c1OP(=O)(N1CC1)N1CC1)CCC(C)(CCCC(C)CCCC(C)CCCC(C)C)O2 (configuration not stated)
inactive: [2] 105 % of control | [3] 105 % of control | [4] 102 % of control

CCOC(=O)C[n+]1cccc(S(=O)(=O)NC)c1
inactive: dose: 12.5 mg/kg/injection, schedule: Q01DX009 (ip), vehicle: saline 94 % of control | [5] 94 % of control | [6] 93 % of control

O=c1[nH]c2cc([N+](=O)[O-])ccc2nc1/C=C(\O)c1ccccc1
inactive: dose: 60.0 mg/kg/injection, schedule: Q01DX005 (ip), vehicle: Klucel + Tween-80 100 % of control | dose: 120.0 mg/kg/injection, schedule: Q01DX005 (ip), vehicle: Klucel + Tween-80 92 % of control | dose: 240.0 mg/kg/injection, schedule: Q01DX005 (ip), vehicle: Klucel + Tween-80 92 % of control

COC(=O)/C(C#N)=C(/SC)N(C)C
inactive: dose: 12.5 mg/kg/injection, schedule: Q01DX009 (ip), vehicle: saline with Tween-80 104 % of control | dose: 25.0 mg/kg/injection, schedule: Q01DX009 (ip), vehicle: saline with Tween-80 104 % of control | [2] 102 % of control and 109 % of control | [3] 103 % of control

CCOc1ccc2c(O)csc2c1
inactive: [7] 100 % of control | [8] 100 % of control | [9] 90 % of control

CCCCNC1=C(Cl)C(=O)c2ccccc2C1=O
inactive: [1] 92 % of control | [10] 92 % of control | [11] 91 % of control | dose: 400.0 mg/kg/injection, schedule: Q01DX009 (ip), vehicle: Klucel (hydroxypropylcellulose) (HPC) 105 % of control

CCC(C)N(C)/N=N/c1nc[nH]c1C(N)=O (configuration not stated)
inactive: [3] 115 % of control | [7] 95 % of control | [4] 105 % of control | [8] 113 % of control | [9] 113 % of control

O=C(CCS(=O)(=O)CCC(=O)c1ccco1)c1ccco1
inactive: dose: 100.0 mg/kg/injection, schedule: Q04DX003 (ip), vehicle: saline 94 % of control | dose: 200.0 mg/kg/injection, schedule: Q04DX003 (ip), vehicle: saline 94 % of control | dose: 400.0 mg/kg/injection, schedule: Q04DX003 (ip), vehicle: saline 90 % of control

O=CCCOC1CCCCO1 (configuration not stated)
inactive: dose: 50.0 mg/kg/injection, schedule: Q01DX009 (ip), vehicle: other 116 % of control | dose: 100.0 mg/kg/injection, schedule: Q01DX009 (ip), vehicle: other 110 % of control | dose: 200.0 mg/kg/injection, schedule: Q01DX009 (ip), vehicle: other 104 % of control

O=[N+]([O-])c1ccc(C=C2C=CN(CCO)C=C2)cc1
inactive: [12] 100 % of control | [13] 108 % of control

Cc1ccc(NC(=S)NC(=O)/C=C/c2ccccc2)cc1Cl
inactive: [5] 100 % of control | [6] 105 % of control | [14] 98 % of control | [15] 97 % of control

Nc1nc2ncc([N+](=O)[O-])cc2c(=O)[nH]1
inactive: [12] 102 % of control | [13] 100 % of control

CSC(C(=O)O)c1cc(-c2c(Cl)cccc2Cl)no1 (configuration not stated)
inactive: [12] 104 % of control | [13] 105 % of control | dose: 200.0 mg/kg/injection, schedule: Q01DX005 (ip), vehicle: saline with Tween-80 107 % of control

CSc1nc2c(NN)ncnc2s1
inactive: dose: 80.5 mg/kg/injection, schedule: Q01DX001 (ip), vehicle: distilled water + alcohol 106 % of control | dose: 161.0 mg/kg/injection, schedule: Q01DX001 (ip), vehicle: distilled water + alcohol 102 % of control | dose: 322.0 mg/kg/injection, schedule: Q01DX001 (ip), vehicle: distilled water + alcohol 102 % of control

CNNC(=O)C(=O)n1ccnc1
inactive: dose: 50.0 mg/kg/injection, schedule: Q01DX005 (ip), vehicle: saline 104 % of control | dose: 100.0 mg/kg/injection, schedule: Q01DX005 (ip), vehicle: saline 103 % of control | dose: 200.0 mg/kg/injection, schedule: Q01DX005 (ip), vehicle: saline 101 % of control

O=C(O)CCC(=O)N(CCP(c1ccccc1)c1ccccc1)CCP(c1ccccc1)c1ccccc1
inactive: [1] 111 % of control | [10] 112 % of control

CCCCCCCCCCCC(=O)C(=O)c1ccc(O)cc1O
inactive: [1] 110 % of control | [10] 107 % of control | [11] 109 % of control

N#C/C(=C\c1ccccn1)c1nc(-c2ccc(Cl)cc2)cs1
inactive: [6] 102 % of control | [14] 92 % of control | [15] 92 % of control

Cc1cc2[nH]c(Cl)c(/C=N/NC(N)=S)c2cc1O
inactive: dose: 100.0 mg/kg/injection, schedule: Q01DX001 (ip), vehicle: Klucel (hydroxypropylcellulose) (HPC) 99 % of control | dose: 200.0 mg/kg/injection, schedule: Q01DX001 (ip), vehicle: Klucel (hydroxypropylcellulose) (HPC) 99 % of control | dose: 400.0 mg/kg/injection, schedule: Q01DX001 (ip), vehicle: Klucel (hydroxypropylcellulose) (HPC) 97 % of control

COC(=O)c1ccccc1SSCCN
inactive: dose: 12.5 mg/kg/injection, schedule: Q01DX005 (ip), vehicle: saline with Tween-80 100 % of control | dose: 25.0 mg/kg/injection, schedule: Q01DX005 (ip), vehicle: saline with Tween-80 106 % of control | [12] 101 % of control and 109 % of control

C=C1C(=O)OC2CC3(C)OC(=CC3=O)/C(C)=C\C(OC(=O)C3(C)OC3C)C12 (configuration not stated)
inactive: dose: 1.56 mg/kg/injection, schedule: Q01DX005 (ip), vehicle: distilled water + Tween-80 105 % of control | dose: 3.12 mg/kg/injection, schedule: Q01DX005 (ip), vehicle: distilled water + Tween-80 99 % of control | dose: 6.25 mg/kg/injection, schedule: Q01DX005 (ip), vehicle: distilled water + Tween-80 96 % of control | dose: 12.5 mg/kg/injection, schedule: Q01DX005 (ip), vehicle: distilled water + Tween-80 101 % of control

CC[N+]1([O-])CCOCC1
inactive: [6] 97 % of control | [14] 101 % of control | [15] 113 % of control

COC(=O)c1nc(=S)[nH]c(C(=O)OC)c1C(=O)c1ccc([N+](=O)[O-])cc1
inactive: dose: 60.0 mg/kg/injection, schedule: Q01DX005 (ip), vehicle: Klucel (hydroxypropylcellulose) (HPC) 101 % of control | dose: 120.0 mg/kg/injection, schedule: Q01DX005 (ip), vehicle: Klucel (hydroxypropylcellulose) (HPC) 95 % of control | dose: 240.0 mg/kg/injection, schedule: Q01DX005 (ip), vehicle: Klucel (hydroxypropylcellulose) (HPC) 91 % of control

Cc1ccc(S(=O)(=O)N/N=C2/C=CC3(CC=CCC3)CC2)cc1 (configuration not stated)
inactive: [1] 109 % of control | [10] 100 % of control | [11] 100 % of control
